One may read the inhibition as the change of the read-out against control, counted positive when it falls. As a reminder, the Cmax is the maximum level reached in the sampled fluid or tissue. A word on the Tmax: it is the time from dosing to the highest level. Broadly, the IC50 is the concentration that gives 50% inhibition.

We go through one compound from patent US11234939B2, “Dosage forms comprising a plasma kallikrein inhibitor” (KALVISTA PHARMACEUTICALS LIMITED, priority 2017, dated 2022).

The structures appear in SMILES notation. Some results are limits rather than exact numbers.

One data set has as its target T1, Human FXIa (Homo sapiens, UniProt P03951).
T1 construct: purchased Enzyme Research Laboratories
The data set is described as follows: Determination of the % Inhibition for FXIa. The format is biochemical. Particulars: 40 μM test compound, 25° C. Here is the method: FXIa inhibitory activity in vitro was determined using standard published methods (see e.g. Johansen et al., Int. J. Tiss. Reac. 1986, 8, 185; Shori et al., Biochem. Pharmacol., 1992, 43, 1209; Sturzebecher et al., Biol. Chem. Hoppe-Seyler, 1992, 373, 1025). Human FXIa (Enzyme Research Laboratories) was incubated at 25° C. with the fluorogenic substrate Z-Gly-Pro-Arg-AFC and 40 μM of the test compound. Residual enzyme activity (initial rate of reaction) was determined by measuring the change in optical absorbance at 410 nm.

The nature of data set [1]: Pharmacokinetic study, single oral dose in rats. The format is in vivo. Particulars: male, Sprague-Dawley, plasma; rat, po 10.1 mg/kg, vehicle TPGS solution (20% aq. w/v). Here is the method: A pharmacokinetic study of the compound of Formula A was performed to assess the pharmacokinetics following a single oral dose in male Sprague-Dawley rats. Two rats were given a single po dose of 5 mL/kg of a nominal 2 mg/mL (10 mg/kg) composition of test compound in vehicle. Following dosing, blood samples were collected over a period of […]. Sample times were 5, 15 and 30 minutes then 1, 2, 4, 6, 8 and 12 hrs. Following collection, blood samples were centrifuged and the plasma fraction analysed for concentration of test compound by LCMS.

The next data set addresses T2, Human KLK1 (Homo sapiens, UniProt P06870).
T2 construct: purchased Callbiochem
As to the kind of experiment: Determination of the IC50 for KLK1. The format is biochemical. The note with it: 25° C., substrate H-DVal-Leu-Arg-AFC. As to the method:
KLK1 inhibitory activity in vitro was determined using standard published methods (see e.g. Johansen et al., Int. J. Tiss. Reac. 1986, 8, 185; Shori et al., Biochem. Pharmacol., 1992, 43, 1209; Stürzebecher et al., Biol. Chem. Hoppe-Seyler, 1992, 373, 1025). Human KLK1 (Callbiochem) was incubated at 25° C. with the fluorogenic substrate H-DVal-Leu-Arg-AFC and various concentrations of the test compound. Residual enzyme activity (initial rate of reaction) was determined by measuring the change in optical absorbance at 410 nm and the IC50 value for the test compound was determined.

T1 sequence (P03951 388-625 limits assumed): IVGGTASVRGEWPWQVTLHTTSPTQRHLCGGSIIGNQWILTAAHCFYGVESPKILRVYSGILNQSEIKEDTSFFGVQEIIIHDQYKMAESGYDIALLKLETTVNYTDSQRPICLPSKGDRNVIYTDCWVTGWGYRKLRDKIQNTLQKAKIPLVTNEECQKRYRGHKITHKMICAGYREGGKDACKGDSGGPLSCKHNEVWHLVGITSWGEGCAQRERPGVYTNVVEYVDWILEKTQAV
T1 sequence (P03951 19-387 partner limits assumed): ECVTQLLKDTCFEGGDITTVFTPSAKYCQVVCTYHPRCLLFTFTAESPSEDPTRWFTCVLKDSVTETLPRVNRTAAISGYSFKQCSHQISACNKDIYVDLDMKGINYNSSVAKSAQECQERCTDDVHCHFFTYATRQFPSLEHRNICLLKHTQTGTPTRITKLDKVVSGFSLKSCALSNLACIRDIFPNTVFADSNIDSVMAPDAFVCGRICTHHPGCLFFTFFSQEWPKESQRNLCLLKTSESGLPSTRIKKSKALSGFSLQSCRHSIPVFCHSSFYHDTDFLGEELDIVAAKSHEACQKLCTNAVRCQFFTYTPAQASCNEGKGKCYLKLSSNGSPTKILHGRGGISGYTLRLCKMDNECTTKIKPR
T2 sequence (P06870 25-262): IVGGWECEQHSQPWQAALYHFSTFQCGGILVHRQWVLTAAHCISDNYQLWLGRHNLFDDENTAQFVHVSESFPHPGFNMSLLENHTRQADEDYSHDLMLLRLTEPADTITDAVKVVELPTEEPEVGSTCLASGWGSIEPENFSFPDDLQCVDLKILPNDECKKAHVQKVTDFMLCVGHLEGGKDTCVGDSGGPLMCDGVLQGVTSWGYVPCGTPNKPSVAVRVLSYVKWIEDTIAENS

Regarding `COCc1nn(Cc2ccc(Cn3ccccc3=O)cc2)cc1C(=O)NCc1nccc(OC)c1F` [compound of Formula A, N-[(3-fluoro-4-methoxypyridin-2-yl)methyl]-3-(methoxymethyl)-1-({4-[(2-oxopyridin-1-yl)methyl]phenyl}methyl)pyrazole-4-carboxamide], the inhibition at 40 µM against Human FXIa is 0%. In data set [1], the Cmax came out at 1940 ng/mL and the Tmax is 1.17 h. The same compound had an IC50 on Human KLK1 above 40 µM.
